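Each compound was tested at five concentrations against cells in 96-well plates for 48 hours. At the GI50, growth is halved.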 The source made the active and inactive calls. Cut-off read from the data, not from the text of the source: active = GI50 up to about 1.1 µM and inactive = higher.
Legend:
Test in all cases: inhibition of tumour cell growth, NCI panel, 48 h
786-0 = system: 786-0
A498 = system: A498
A549 = system: A549
ACHN = system: ACHN
BT-549 = system: BT-549
CAKI-1 = system: CAKI-1
CCRF-CEM = system: CCRF-CEM
COLO 205 = system: COLO 205
DU-145 = system: DU-145
EKVX = system: EKVX
HCC 2998 = system: HCC 2998
HCT-116 = system: HCT-116
HCT-15 = system: HCT-15
HL-60 = system: HL-60
HOP-62 = system: HOP-62
HT-29 = system: HT-29
Hs-578T = system: Hs-578T
IGROV-1 = system: IGROV-1
K562 = system: K562
KM12 = system: KM12
LOX IMVI = system: LOX IMVI
M14 = system: M14
MCF7 = system: MCF7
MDA-MB-231 = system: MDA-MB-231
MDA-MB-435 = system: MDA-MB-435
MDA-N = system: MDA-N
MOLT-4 = system: MOLT-4
Malme-3M = system: Malme-3M
NCI-H226 = system: NCI-H226
NCI-H23 = system: NCI-H23
NCI-H460 = system: NCI-H460
NCI-H522 = system: NCI-H522
OVCAR-3 = system: OVCAR-3
OVCAR-4 = system: OVCAR-4
OVCAR-5 = system: OVCAR-5
OVCAR-8 = system: OVCAR-8
PC-3 = system: PC-3
RPMI-8226 = system: RPMI-8226
RXF 393 = system: RXF 393
SF-268 = system: SF-268
SF-295 = system: SF-295
SF-539 = system: SF-539
SK-MEL-28 = system: SK-MEL-28
SK-MEL-2 = system: SK-MEL-2
SK-MEL-5 = system: SK-MEL-5
SK-OV-3 = system: SK-OV-3
SN12C = system: SN12C
SNB-19 = system: SNB-19
SNB-75 = system: SNB-75
SR = system: SR
SW-620 = system: SW-620
T47D = system: T47D
TK-10 = system: TK-10
U-251 = system: U-251
UACC-257 = system: UACC-257
UACC-62 = system: UACC-62
UO-31 = system: UO-31
NCI/ADR-RES = system: NCI/ADR-RES

## CN(C)CCNC(=O)c1cc([N+](=O)[O-])cn1C
786-0
  GI50: > 100 µM (inactive)
A498
  GI50: > 100 µM (inactive)
A549
  GI50: > 100 µM (inactive)
ACHN
  GI50: > 100 µM (inactive)
BT-549
  GI50: > 100 µM (inactive)
CAKI-1
  GI50: > 100 µM (inactive)
CCRF-CEM
  GI50: > 100 µM (inactive)
COLO 205
  GI50: > 100 µM (inactive)
DU-145
  GI50: > 100 µM (inactive)
EKVX
  GI50: > 100 µM (inactive)
HCC 2998
  GI50: > 100 µM (inactive)
HCT-116
  GI50: > 100 µM (inactive)
HCT-15
  GI50: > 100 µM
HL-60
  GI50: > 100 µM (inactive)
HOP-62
  GI50: > 100 µM (inactive)
HT-29
  GI50: > 100 µM (inactive)
Hs-578T
  GI50: > 100 µM (inactive)
IGROV-1
  GI50: > 100 µM (inactive)
K562
  GI50: > 100 µM (inactive)
KM12
  GI50: > 100 µM (inactive)
LOX IMVI
  GI50: > 100 µM (inactive)
M14
  GI50: > 100 µM (inactive)
MCF7
  GI50: > 100 µM (inactive)
MDA-MB-231
  GI50: > 100 µM (inactive)
MDA-MB-435
  GI50: > 100 µM (inactive)
MDA-N
  GI50: > 100 µM (inactive)
MOLT-4
  GI50: > 100 µM (inactive)
Malme-3M
  GI50: > 100 µM (inactive)
NCI-H226
  GI50: > 100 µM (inactive)
NCI-H23
  GI50: > 100 µM (inactive)
NCI-H460
  GI50: > 100 µM (inactive)
NCI-H522
  GI50: > 100 µM (inactive)
OVCAR-3
  GI50: > 100 µM (inactive)
OVCAR-4
  GI50: > 100 µM (inactive)
OVCAR-5
  GI50: > 100 µM (inactive)
OVCAR-8
  GI50: > 100 µM (inactive)
PC-3
  GI50: > 100 µM (inactive)
RPMI-8226
  GI50: > 100 µM (inactive)
RXF 393
  GI50: > 100 µM (inactive)
SF-268
  GI50: > 100 µM (inactive)
SF-295
  GI50: > 100 µM (inactive)
SF-539
  GI50: > 100 µM (inactive)
SK-MEL-28
  GI50: > 100 µM (inactive)
SK-MEL-2
  GI50: > 100 µM (inactive)
SK-MEL-5
  GI50: > 100 µM (inactive)
SK-OV-3
  GI50: > 100 µM (inactive)
SN12C
  GI50: > 100 µM (inactive)
SNB-19
  GI50: > 100 µM (inactive)
SNB-75
  GI50: > 100 µM (inactive)
SR
  GI50: > 100 µM (inactive)
SW-620
  GI50: > 100 µM (inactive)
T47D
  GI50: > 100 µM (inactive)
TK-10
  GI50: > 100 µM (inactive)
U-251
  GI50: > 100 µM (inactive)
UACC-257
  GI50: > 100 µM (inactive)
UACC-62
  GI50: > 100 µM (inactive)
UO-31
  GI50: > 100 µM (inactive)

## C[C@H](CCC(=O)O)[C@H]1CC[C@H]2[C@@H]3CC[C@@H]4C[C@H](O)CC[C@]4(C)[C@H]3C[C@H](O)[C@]12C [DEOXYCHOLIC ACID]
786-0
  GI50: 45.8 µM (inactive)
A498
  GI50: 41.2 µM (inactive)
A549
  GI50: 35.9 µM (inactive)
ACHN
  GI50: 37.8 µM (inactive)
BT-549
  GI50: 48.4 µM (inactive)
CAKI-1
  GI50: 69.5 µM (inactive)
CCRF-CEM
  GI50: 23.9 µM (inactive)
COLO 205
  GI50: 27.9 µM (inactive)
DU-145
  GI50: 65.6 µM (inactive)
EKVX
  GI50: 31.4 µM (inactive)
HCC 2998
  GI50: 61.2 µM (inactive)
HCT-116
  GI50: 32.9 µM (inactive)
HCT-15
  GI50: 36.1 µM
HL-60
  GI50: 30.1 µM (inactive)
HOP-62
  GI50: 26.4 µM (inactive)
HT-29
  GI50: 34.1 µM (inactive)
Hs-578T
  GI50: 40.7 µM (inactive)
IGROV-1
  GI50: 27.9 µM (inactive)
K562
  GI50: 36.6 µM (inactive)
KM12
  GI50: 49.4 µM (inactive)
LOX IMVI
  GI50: 40.8 µM (inactive)
M14
  GI50: 34.3 µM (inactive)
MCF7
  GI50: 36.2 µM (inactive)
MDA-MB-231
  GI50: 41.5 µM (inactive)
MDA-MB-435
  GI50: 42.2 µM (inactive)
MDA-N
  GI50: 42.2 µM (inactive)
MOLT-4
  GI50: 26.5 µM (inactive)
Malme-3M
  GI50: 32.8 µM (inactive)
NCI-H226
  GI50: 95.1 µM (inactive)
NCI-H23
  GI50: 39.7 µM (inactive)
NCI-H460
  GI50: 40.7 µM (inactive)
NCI-H522
  GI50: 28 µM (inactive)
NCI/ADR-RES
  GI50: 44.5 µM (inactive)
OVCAR-3
  GI50: 20.4 µM (inactive)
OVCAR-4
  GI50: 49.7 µM (inactive)
OVCAR-5
  GI50: 44.7 µM (inactive)
OVCAR-8
  GI50: 39.4 µM (inactive)
PC-3
  GI50: 33.6 µM (inactive)
RPMI-8226
  GI50: 25.8 µM (inactive)
RXF 393
  GI50: 52.4 µM (inactive)
SF-268
  GI50: 40.1 µM (inactive)
SF-295
  GI50: 17.8 µM (inactive)
SF-539
  GI50: 48 µM (inactive)
SK-MEL-28
  GI50: 63.1 µM (inactive)
SK-MEL-2
  GI50: 31.2 µM (inactive)
SK-MEL-5
  GI50: 37.8 µM (inactive)
SK-OV-3
  GI50: 26.7 µM (inactive)
SN12C
  GI50: 34 µM (inactive)
SNB-19
  GI50: 40.1 µM (inactive)
SNB-75
  GI50: 37.1 µM (inactive)
SW-620
  GI50: 47.8 µM (inactive)
T47D
  GI50: 31.4 µM (inactive)
TK-10
  GI50: > 100 µM (inactive)
U-251
  GI50: 30.7 µM (inactive)
UACC-257
  GI50: 92.3 µM (inactive)
UACC-62
  GI50: 37.5 µM (inactive)
UO-31
  GI50: 37.6 µM (inactive)
